From PubChem BioAssay AID1963969 (Molecular Pharmacology Branch, DTP, NCI, 2024)
“And” between values parts separate entries of the source, which are not always exact repeats. Equal values may be shown once.

Tested on: 817829-284-R-J1-PDC multi-cell spheroid viability
Experiment: Anticancer human tumor 817829-284-R-J1-PDC patient-derived colon adenocarcinoma cell line growth inhibition [PI3K]
Details: for viability, T/C: stronger effect = lower value
Text: Combinatorial screen of targeted agents with the PI3K inhibitors inavolisib, alpelisib, duvelisib, and copanlisib in multi-cell type tumor spheroids
A high-throughput screen of multi-cell type tumor spheroids was designed to identify active combinations of targeted small molecules and PI3K pathway inhibitors. Complex spheroids include a stromal component modeled by human endothelial cells (HUVEC) and fibroblasts modeled by human mesenchymal stem cells (MSCs). The concentration ranges selected for each drug and investigational agent were based upon clinically achievable concentrations if the clinical Cmax of the agent was known.
Compounds. The drugs and investigational agents: inavolisib (NSC800729), alpelisib (NSC765974), duvelisib (NSC772469), copanlisib (NSC816437), ipatasertib (NSC767898), afuresertib (NSC778305), talazoparib (NSC767125), sapanisertib (NSC764658), selumetinib (NSC741078), tovorafenib (DAY101, NSC766906), vemurafenib (NSC761431), ravoxertinib (NSC781343), sotorasib (NSC818433), MRTX1133 (NSC 836407), abemaciclib (NSC 768073), palbociclib (NSC758247), venetoclax (NSC 766270), SY5609 (NSC837396), enzalutamide (NSC755605), and darolutamide (NSC825331), were obtained from the National Cancer Institute (NCI) Developmental Therapeutics Program Chemical Repository. The FDA-approved anticancer drug set is available from the NCI Developmental Therapeutics Program. […] The stock solutions were prepared in dimethyl sulfoxide (DMSO, Sigma-Aldrich, St. Louis, MO, cat. D2650) at 800-fold the tested concentration and stored at -70 degrees C prior to their use. All drugs and investigational agents were tested over a range starting from a high concentration at or near the clinical Cmax and decreasing in half-log increments. If the clinical Cmax for an agent had not been determined, the highest concentration tested was 10 microM.
Cell Culture. All cells were maintained in an incubator at 37 degrees C and 5% CO2 with 95% humidity. The PDC lines were cultured according to standard operating procedures established by the NCI PDMR (https://pdmr.cancer.gov/sops/default.htm). All PDCs were thawed and cultured in Matrigel-coated flasks prepared with a working solution of 1X Ham's F-12 nutrient mix, without supplementation (Invitrogen, Waltham, MA, cat. 11765054), 100 U/mL penicillin-streptomycin (Invitrogen, cat. 15140122), and 2.5% Matrigel (Corning Inc., Corning, NY, cat. 354248) for the first three passages. The 354836-022-R-J1-PDC, 475296-252-R-J1-PDC, and 997726-040-R-J2-PDC lines were cultured in 6A media, which includes advanced DMEM/F-12 (Thermo Fisher Scientific, cat. 12634028), 10 mM HEPES (Thermo Fisher Scientific, cat. 15630080), 1X GlutaMAX supplement (Thermo Fisher Scientific, cat. 35050061), 0.1 mg/mL primocin (InvivoGen, San Diego, CA, cat. ant-pm-2), 10% defined fetal bovine serum, heat inactivated (HyClone Laboratories Inc., Logan, UT, cat. SH30070.03HI), 50% L-WRN conditioned media (ATCC, cat. CRL-3276), 1.25 mM N-Acetyl-L-cysteine (Sigma-Aldrich, cat. A9165), 10 mM nicotinamide (Sigma-Aldrich, cat. N0636), 1X B-27 supplement (Thermo Fisher Scientific, cat. 17504044), 1X N-2 supplement (Thermo Fisher Scientific, cat. 17502048), and 10 microM Y-27632 dihydrochloride (Tocris Bioscience, Bristol, United Kingdom, cat. 1254). The 624824-186-R-J2-PDC line was cultured in 6C/Colon 1B media, which includes all 6A media components plus 50 ng/mL human EGF recombinant protein (Thermo Fisher Scientific, cat. PHG0311). […]

[1] = curve of first compound, second compound 0.0316 µM
[2] = curve of first compound, second compound 0.1 µM
[3] = curve of first compound, second compound 0.316 µM
[4] = curve of first compound, second compound 1 µM
[5] = curve of first compound, second compound 3.16 µM
[6] = curve of first compound, second compound 10 µM
[7] = second compound 0.0316 µM, first compound 0.0316 µM
[8] = second compound 0.0316 µM, first compound 0.1 µM
[9] = second compound 0.0316 µM, first compound 0.316 µM
[10] = second compound 0.0316 µM, first compound 1 µM
[11] = second compound 0.0316 µM, first compound 3.16 µM
[12] = second compound 0.0316 µM, first compound 10 µM
[13] = second compound 0.1 µM, first compound 0.0316 µM
[14] = second compound 0.1 µM, first compound 0.1 µM
[15] = second compound 0.1 µM, first compound 0.316 µM
[16] = second compound 0.1 µM, first compound 1 µM
[17] = second compound 0.1 µM, first compound 3.16 µM
[18] = second compound 0.1 µM, first compound 10 µM
[19] = second compound 0.316 µM, first compound 0.0316 µM
[20] = second compound 0.316 µM, first compound 0.1 µM
[21] = second compound 0.316 µM, first compound 0.316 µM
[22] = second compound 0.316 µM, first compound 1 µM
[23] = second compound 0.316 µM, first compound 3.16 µM
[24] = second compound 0.316 µM, first compound 10 µM
[25] = second compound 1 µM, first compound 0.0316 µM
[26] = second compound 1 µM, first compound 0.1 µM
[27] = second compound 1 µM, first compound 0.316 µM
[28] = second compound 1 µM, first compound 1 µM
[29] = second compound 1 µM, first compound 3.16 µM
[30] = second compound 1 µM, first compound 10 µM
[31] = second compound 3.16 µM, first compound 0.0316 µM
[32] = second compound 3.16 µM, first compound 0.1 µM
[33] = second compound 3.16 µM, first compound 0.316 µM
[34] = second compound 3.16 µM, first compound 1 µM
[35] = second compound 3.16 µM, first compound 3.16 µM
[36] = second compound 3.16 µM, first compound 10 µM
[37] = second compound 10 µM, first compound 0.0316 µM
[38] = second compound 10 µM, first compound 0.1 µM
[39] = second compound 10 µM, first compound 0.316 µM
[40] = second compound 10 µM, first compound 1 µM
[41] = second compound 10 µM, first compound 3.16 µM
[42] = second compound 10 µM, first compound 10 µM
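Note: spheroids exposed to agents for seven days before readout.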
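Throughout, for viability, T/C: percent of vehicle DMSO control viability which is 100%.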

For C[C@@H](NC(=O)c1ncnc(N)c1Cl)c1ncc(C(=O)Nc2cc(C(F)(F)F)c(Cl)cn2)s1 + Cc1nc(NC(=O)N2CCCC2C(N)=O)sc1-c1ccnc(C(C)(C)C(F)(F)F)c1, the IC50 [1] was > 10 µM, the IC50 [2] was > 10 µM and the IC50 [3] was > 10 µM. For the same compound, the IC50 [4] was > 10 µM, the IC50 [5] was > 10 µM and the IC50 [6] was < 0.0316 µM. The viability, T/C [7] was 106%, the viability, T/C [8] was 74.4% and the viability, T/C [9] was 71.9%. For the same compound, the viability, T/C [10] was 68.5%, the viability, T/C [11] was 96.3% and the viability, T/C [12] was 88.2%. For the same compound, the viability, T/C [13] was 77.5%, the viability, T/C [14] was 86.3% and the viability, T/C [15] was 81.1%. For the same compound, the viability, T/C [16] was 72.4%, the viability, T/C [17] was 70.7% and the viability, T/C [18] was 83%. For the same compound, the viability, T/C [19] was 79.8%, the viability, T/C [20] was 85.9% and the viability, T/C [21] was 61.9%. The viability, T/C [22] was 59.4%, the viability, T/C [23] was 80.7% and the viability, T/C [24] was 65.6%. The viability, T/C [25] was 56%, the viability, T/C [26] was 86.5% and the viability, T/C [27] was 74.9%. It also gave a viability, T/C [28] of 96.6%, a viability, T/C [29] of 61.9% and a viability, T/C [30] of 93.9%. For the same compound, the viability, T/C [31] was 73.8%, the viability, T/C [32] was 53.8% and the viability, T/C [33] was 70.5%. It also gave a viability, T/C [34] of 84.8%, a viability, T/C [35] of 102% and a viability, T/C [36] of 74.5%. It also gave a viability, T/C [37] of 45.7%, a viability, T/C [38] of 31.2% and a viability, T/C [39] of 61.7%. For the same compound, the viability, T/C [40] was 54.3%, the viability, T/C [41] was 94.9% and the viability, T/C [42] was 42.3%.

For Cn1nccc1Nc1nccc(-c2ccn(C(CO)c3ccc(Cl)c(F)c3)c(=O)c2)n1 (stereo not drawn) + Cc1nc(NC(=O)N2CCCC2C(N)=O)sc1-c1ccnc(C(C)(C)C(F)(F)F)c1, the IC50 [1] was 7.87 µM, the IC50 [2] was 4.8 µM and the IC50 [3] was 6.44 µM. The IC50 [4] was 4.65 µM, the IC50 [5] was 4.88 µM and the IC50 [6] was 4.81 µM. For the same compound, the viability, T/C [7] was 83%, the viability, T/C [8] was 66.9% and the viability, T/C [9] was 92.2%. It also gave a viability, T/C [10] of 90.7%, a viability, T/C [11] of 81.6% and a viability, T/C [12] of 41.6%. It also gave a viability, T/C [13] of 79.8%, a viability, T/C [14] of 77.3% and a viability, T/C [15] of 76.3%. For the same compound, the viability, T/C [16] was 75.3%, the viability, T/C [17] was 63.2% and the viability, T/C [18] was 26.6%. The viability, T/C [19] was 87.8%, the viability, T/C [20] was 99.5% and the viability, T/C [21] was 72%. It also gave a viability, T/C [22] of 74.6%, a viability, T/C [23] of 81.6% and a viability, T/C [24] of 30.6%. It also gave a viability, T/C [25] of 68.6%, a viability, T/C [26] of 69% and a viability, T/C [27] of 62.1%. It also gave a viability, T/C [28] of 107%, a viability, T/C [29] of 60.9% and a viability, T/C [30] of 28.5%. The viability, T/C [31] was 54.2%, the viability, T/C [32] was 102% and the viability, T/C [33] was 86.1%. The viability, T/C [34] was 87.3%, the viability, T/C [35] was 67.3% and the viability, T/C [36] was 21.6%. The viability, T/C [37] was 109%, the viability, T/C [38] was 103% and the viability, T/C [39] was 101%. It also gave a viability, T/C [40] of 94.2%, a viability, T/C [41] of 69% and a viability, T/C [42] of 16.4%.

For Cn1cnc2c(F)c(Nc3ccc(Br)cc3Cl)c(C(=O)NOCCO)cc21, the viability, T/C (compound 0.00949 µM) was 87.3% and 90.1%, the viability, T/C (compound 0.03 µM) was 70.7% and 64.5% and the viability, T/C (compound 0.0949 µM) was 65% and 73.3%. For the same compound, the viability, T/C (compound 0.3 µM) was 62.5% and 52.7%, the viability, T/C (compound 0.949 µM) was 55.5% and 55.6% and the viability, T/C (compound 3 µM) was 33.4% and 21.9%. The IC50 (curve of compound) was 0.901 µM and 0.649 µM.

For CC(Cn1ccc(-c2ccc(C#N)c(Cl)c2)n1)NC(=O)c1cc(C(C)O)[nH]n1 (stereo not drawn) + CC(Nc1ccc2c(c1)OCCn1cc(N3C(=O)OCC3C(F)F)nc1-2)C(N)=O, the IC50 (curve of first compound, second compound 0.00316 µM) was > 10 µM, the IC50 (curve of first compound, second compound 0.01 µM) was 8.89 µM and the IC50 [1] was > 10 µM. For the same compound, the IC50 [2] was > 10 µM, the IC50 [3] was > 10 µM and the IC50 [4] was > 10 µM. It also gave a viability, T/C (second compound 0.00316 µM, first compound 0.0316 µM) of 91.8%, a viability, T/C (second compound 0.00316 µM, first compound 0.1 µM) of 127% and a viability, T/C (second compound 0.00316 µM, first compound 0.316 µM) of 99%. For the same compound, the viability, T/C (second compound 0.00316 µM, first compound 1 µM) was 96.2%, the viability, T/C (second compound 0.00316 µM, first compound 3.16 µM) was 94.4% and the viability, T/C (second compound 0.00316 µM, first compound 10 µM) was 53.1%. For the same compound, the viability, T/C (second compound 0.01 µM, first compound 0.0316 µM) was 140%, the viability, T/C (second compound 0.01 µM, first compound 0.1 µM) was 86.2% and the viability, T/C (second compound 0.01 µM, first compound 0.316 µM) was 86.4%. The viability, T/C (second compound 0.01 µM, first compound 1 µM) was 70.8%, the viability, T/C (second compound 0.01 µM, first compound 3.16 µM) was 63.5% and the viability, T/C (second compound 0.01 µM, first compound 10 µM) was 57.4%. The viability, T/C [7] was 67.4%, the viability, T/C [8] was 96.8% and the viability, T/C [9] was 78%. It also gave a viability, T/C [10] of 78.6%, a viability, T/C [11] of 74.1% and a viability, T/C [12] of 59.9%. The viability, T/C [13] was 81.5%, the viability, T/C [14] was 114% and the viability, T/C [15] was 62.3%. For the same compound, the viability, T/C [16] was 117%, the viability, T/C [17] was 79.5% and the viability, T/C [18] was 55.3%. It also gave a viability, T/C [19] of 77.1%, a viability, T/C [20] of 66.1% and a viability, T/C [21] of 76.8%. The viability, T/C [22] was 58.7%, the viability, T/C [23] was 110% and the viability, T/C [24] was 46.4%. It also gave a viability, T/C [25] of 75.5%, a viability, T/C [26] of 39% and a viability, T/C [27] of 65.6%. It also gave a viability, T/C [28] of 72.9%, a viability, T/C [29] of 60% and a viability, T/C [30] of 50.8%.
